Experiment [1] relates to Human osteosarcoma cells (HOS) stably expressing GFP-LC3. The experiment is described as follows: High Content Screening Autophagy Assay (GFP-LC3 foci). In kind it is cell-based. The settings on record: autophagy in HOS cells, activated with KU-0063794 500 nM plus Bafilomycin A1 5 nM, 6 hours, LC3-GFP foci area per cell, read-out: Median IC50 (nM) Cellular assay. On the procedure:
Human osteosarcoma cells (HOS) stably expressing a Green Fluorescent Protein (GFP) tagged LC3 (GFP-LC3) were used to determine the inhibitory effect on autophagy of proprietary compounds. For that purpose, autophagy was activated by using the mTOR inhibitor KU-0063794 at 500 nM in the presence of Bafilomycin A1 (Sigma-Aldrich) at 5 nM. Shortly, cells were plated overnight in clear bottom 96-well plates in DMEM—High Modified media (Hi-Clone Cat #SH30285.01). At the start of the experiment, the media was removed and replaced with fresh media containing the mTOR inhibitor, Bafilomycin A1 and the vehicle or a test compound as indicated. After 6 hours the media was removed, cells were washed twice with ice-cold phosphate buffered saline (PBS) and fixed with 4% paraformaldehyde for 20 minutes at room temperature. Then the cells were washed twice with ice-cold PBS before adding Hoechst 33342 at 1 μg/ml in PBS for nuclear staining. After incubation overnight at 4° C., cells were washed once with PBS to remove the excess of dye and 100 μl of PBS was added to each well. Images were acquired at 20× magnification, 6 images per well, using the ImageXpress automated microscope (Molecular Devices Inc.) and analyzed with MetaXpress software to identify LC3-GFP foci. Foci area per cell values were used to generate dose response curves and IC50 values were calculated using the non-linear fitting analysis in GraphPad Prism software. […] The results of the assay are shown in Table 2 (Median IC50 nM HOS-LC3).

A further experiment concerns the target Vps34 enzyme (Homo sapiens (Human), UniProt Q8NEB9). The experiment is described as follows: Vps34 Biochemical Assay (Adapta kinase assay, TR-FRET). The settings on record: 20 μM ATP and 200 μM PI:PS in substrate mix, 1 h at room temperature, read-out: Median IC50 nM Adapta. On the procedure: Dilution series of compounds of the invention were prepared in DMSO at 100 times the final assay concentration (n1=n0/3 in 10 points). The compounds were further diluted to 4 times the assay concentration in assay buffer (Life technologies buffer Q, PV5125, diluted 5 times supplemented with 2 mM DTT and 2 mM MnCl2). 2.5 μl of the diluted compounds were added to a 384 well assay plate followed by 2.5 μl of 16.5 nM Vps34 enzyme (Life technologies, PV5126). Enzyme and compounds were pre-incubated at rt for 15 min. Then 5 μl of substrate mix containing 20 μM ATP (Life technologies, PV3227) and 200 μM PI:PS substrate (Life technologies, PV5122) in assay buffer was added to the wells containing compound and enzyme. Mixing was performed by pipetting several times. The reaction was incubated at room temperature for 1 h. Then 5 μl stop-detection mix, prepared as described in the Adapta kinase assay kit instructions (Life technologies, PV5099) containing Adapta Eu-anti-ADP antibody (2.3 nM), Alexa Fluor 647 ADP tracer (9 nM) and EDTA (30 mM) in TR-FRET buffer, was added to quench the reaction. Mixing was performed by pipetting several times. The assay plate was then incubated at room temperature for 30 min and read with Artemis micro plate reader. Percent inhibition of the compounds as compared to DMSO treated control samples was calculated. By the use of Dotmatics software compound concentration versus percent inhibition was fitted to generate IC50 values.
In general terms: In TR-FRET formats the signal depends on donor and acceptor labels being close together.

The values that follow come from patent publication US11498919B2, “Azaindolylpyridone and diazaindolylpyridone compounds” (Sprint Bioscience AB, priority 2017, dated 2022).

Bounds are passed on as bounds.

Chain of Vps34 enzyme (Q8NEB9 whole entry): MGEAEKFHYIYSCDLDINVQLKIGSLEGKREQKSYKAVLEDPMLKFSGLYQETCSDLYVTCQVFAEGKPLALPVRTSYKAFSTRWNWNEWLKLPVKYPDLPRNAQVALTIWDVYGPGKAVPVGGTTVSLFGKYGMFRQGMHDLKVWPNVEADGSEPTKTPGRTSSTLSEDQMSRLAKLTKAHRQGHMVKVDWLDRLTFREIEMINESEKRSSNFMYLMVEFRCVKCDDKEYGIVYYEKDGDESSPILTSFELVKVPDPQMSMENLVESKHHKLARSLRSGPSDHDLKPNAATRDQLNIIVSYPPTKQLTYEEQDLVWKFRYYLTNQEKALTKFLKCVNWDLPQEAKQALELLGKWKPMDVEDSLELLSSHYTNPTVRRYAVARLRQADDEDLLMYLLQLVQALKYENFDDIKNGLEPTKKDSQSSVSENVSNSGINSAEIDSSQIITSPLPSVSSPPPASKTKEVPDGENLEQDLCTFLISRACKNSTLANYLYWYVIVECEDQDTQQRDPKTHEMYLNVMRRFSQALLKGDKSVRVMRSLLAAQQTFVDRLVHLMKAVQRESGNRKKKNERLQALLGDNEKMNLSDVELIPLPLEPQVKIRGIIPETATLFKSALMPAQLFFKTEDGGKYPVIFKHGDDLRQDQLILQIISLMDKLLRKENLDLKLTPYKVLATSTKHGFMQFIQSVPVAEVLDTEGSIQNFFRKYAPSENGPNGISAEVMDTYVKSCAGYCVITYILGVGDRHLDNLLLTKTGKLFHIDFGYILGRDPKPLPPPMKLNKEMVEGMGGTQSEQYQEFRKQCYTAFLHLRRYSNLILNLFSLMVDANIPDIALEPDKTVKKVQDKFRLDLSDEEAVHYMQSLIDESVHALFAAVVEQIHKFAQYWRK

One may read the IC50 as the concentration at which inhibition is half-maximal. For the compound `O=c1cc(-c2ccnc3[nH]ncc23)cc(-c2ccccc2C(F)(F)F)[nH]1` [Example 82, 4-(1H-pyrazolo[3,4-b]pyridin-4-yl)-6-[2-(trifluoromethyl)phenyl]-1H-pyridin-2-one], the figures for the IC50 (in experiment [1]; at Vps34 enzyme) were 485 nM and under 5 nM, respectively.
